Article PMC6853638, “TMC1 is an essential component of a leak channel that modulates tonotopy and excitability of auditory hair cells in mice” (eLife, 2019)
Residue numbers refer to the chain shown, from its start. Several values for one entry are separate records, joined by “and”; a condition that tells them apart may be missing. Equal entries are not always repeated.

Legend:
[1] = biological target: T1, TMC1-M412C (Mus musculus, UniProt Q8R4P5, M412C); set-up: method as in Pan et al., 2018; settings: MTSET treatment of M412C; ref Pan et al., 2018; cited from earlier work
T1 construct: control full-length TMC1 (TMC1_WT); expressed in transfected cells; host or cells: Tmc1;Tmc2 double-knockout mouse OHCs (P1 + 3 DIV), injectoporation

[2] = biological target: T1, TMC1-M412C; test: MET current under MTSET treatment in Tmc1;Tmc2 double-knockout OHCs expressing TMC1-M412C; type: cell-based
[3] = biological target: T2, cysteine-substituted TMC1 constructs (Mus musculus, UniProt Q8R4P5, D569C); test: Background current before and after MTSET treatment in Tmc1-knockout OHCs expressing cysteine-substituted TMC1; type: cell-based; settings: Tmc1-knockout OHCs expressing TMC1-D569C, individual cells
T2 construct: control full-length TMC1 (TMC1_WT); expressed in transfected cells; host or cells: Tmc1-knockout mouse OHCs, injectoporation
T2 sequence (Q8R4P5 1-757 D569C): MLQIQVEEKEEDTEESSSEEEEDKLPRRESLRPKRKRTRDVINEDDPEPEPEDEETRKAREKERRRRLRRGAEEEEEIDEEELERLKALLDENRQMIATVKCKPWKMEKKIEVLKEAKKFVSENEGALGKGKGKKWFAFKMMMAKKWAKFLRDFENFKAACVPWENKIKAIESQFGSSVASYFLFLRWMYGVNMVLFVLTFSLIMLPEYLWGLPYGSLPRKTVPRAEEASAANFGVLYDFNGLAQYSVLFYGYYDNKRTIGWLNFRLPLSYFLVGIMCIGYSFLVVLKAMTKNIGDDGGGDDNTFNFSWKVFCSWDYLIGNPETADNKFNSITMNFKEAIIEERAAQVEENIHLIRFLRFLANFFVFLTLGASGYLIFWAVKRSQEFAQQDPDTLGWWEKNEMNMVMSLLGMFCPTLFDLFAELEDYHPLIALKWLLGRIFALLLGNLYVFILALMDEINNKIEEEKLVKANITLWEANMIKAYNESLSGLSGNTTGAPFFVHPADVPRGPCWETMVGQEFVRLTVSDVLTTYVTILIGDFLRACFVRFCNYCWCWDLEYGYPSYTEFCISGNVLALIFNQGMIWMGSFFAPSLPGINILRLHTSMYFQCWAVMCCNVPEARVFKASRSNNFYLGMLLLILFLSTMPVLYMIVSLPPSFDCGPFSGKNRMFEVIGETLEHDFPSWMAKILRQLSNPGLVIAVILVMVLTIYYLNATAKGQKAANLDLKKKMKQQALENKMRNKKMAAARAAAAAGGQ
Experimental: (§1) Mouse Tmc1 and Tmc2 cDNAs were cloned into CMV-Script and pCDNA3.1- vectors, respectively. To obtain the Tmc1-deafness vector and amino-acid-substituted Tmc1 constructs, specific primers were designed and used for PCR (Supplementary File 1). […] In brief, the organ of Corti was isolated from P3 mice and cut into three pieces in Dulbecco’s modified Eagle’s medium/F12 with 1.5 μg/ml ampicillin. For electroporation, a glass pipette (2 μm tip diameter) was used to deliver cDNA plasmids (0.2 μg/μl in 1 × Hanks' balanced salt solution) to hair cells in the sensory epithelium. EGFP was used as an indicator for the selection of transfected hair cells. A series of three pulses at 60 V lasting 15 ms at 1 s intervals was applied to cochlear tissues by an electroporator (ECM Gemini X2, BTX, CA). The cochlear tissues were cultured for 1 day in vitro and then used for electrophysiological recording.
(§2) All experiments were performed at room temperature (20–25°C). Briefly, the basilar membrane with hair cells was acutely dissected from neonatal mice. […] The acutely isolated or cultured basilar membrane was used for electrophysiological recording within 1 h. […] Hair cells were recorded with a patch-clamp amplifier (EPC 10 USB and Patchmaster software, HEKA Elektronik, Lambrecht/Pfalz, Germany).
(§3) The sampling rate was 1 kHz for leak current recording, 50 kHz for the IV protocol and current-clamp recording, and 100 kHz for unitary channel recording. The voltage-clamp used a –70 mV holding potential, and the current-clamp was held at 0 pA. Only recordings with a current baseline <20 pA in NMDG solution were used for statistical analysis.

[4] = biological target: T3, cysteine-substituted TMC1 constructs (Mus musculus, UniProt Q8R4P5, M412C); test: as above; type: cell-based; settings: Tmc1-knockout OHCs expressing TMC1-M412C, individual cells
T3 construct: control full-length TMC1 (TMC1_WT); expressed in transfected cells; host or cells: Tmc1-knockout mouse OHCs, injectoporation
T3 sequence (Q8R4P5 1-757 M412C): T2 sequence (Q8R4P5 1-757 D569C) with M412C, C569D
Experimental: as §1, §2, §3

T1 sequence (Q8R4P5 whole entry M412C): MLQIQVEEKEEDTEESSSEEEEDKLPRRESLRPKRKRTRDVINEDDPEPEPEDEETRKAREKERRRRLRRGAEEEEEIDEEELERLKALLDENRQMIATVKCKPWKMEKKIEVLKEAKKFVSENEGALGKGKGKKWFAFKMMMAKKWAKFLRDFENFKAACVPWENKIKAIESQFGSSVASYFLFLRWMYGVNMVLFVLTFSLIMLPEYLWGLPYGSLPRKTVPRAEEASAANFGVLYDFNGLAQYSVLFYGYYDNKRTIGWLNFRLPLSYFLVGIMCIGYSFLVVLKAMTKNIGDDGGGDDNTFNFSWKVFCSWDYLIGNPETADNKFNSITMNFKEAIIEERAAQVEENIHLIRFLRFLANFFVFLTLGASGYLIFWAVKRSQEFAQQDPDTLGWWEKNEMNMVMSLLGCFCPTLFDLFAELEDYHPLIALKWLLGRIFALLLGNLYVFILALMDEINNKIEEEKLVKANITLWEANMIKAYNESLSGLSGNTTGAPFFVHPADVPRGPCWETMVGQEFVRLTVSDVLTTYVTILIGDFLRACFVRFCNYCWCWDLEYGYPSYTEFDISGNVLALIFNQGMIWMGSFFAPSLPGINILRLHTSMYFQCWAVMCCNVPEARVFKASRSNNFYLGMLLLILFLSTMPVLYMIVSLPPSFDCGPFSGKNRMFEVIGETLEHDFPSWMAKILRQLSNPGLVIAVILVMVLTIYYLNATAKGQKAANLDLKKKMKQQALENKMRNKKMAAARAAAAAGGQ
T1 sequence (Q4KL25 whole entry partner): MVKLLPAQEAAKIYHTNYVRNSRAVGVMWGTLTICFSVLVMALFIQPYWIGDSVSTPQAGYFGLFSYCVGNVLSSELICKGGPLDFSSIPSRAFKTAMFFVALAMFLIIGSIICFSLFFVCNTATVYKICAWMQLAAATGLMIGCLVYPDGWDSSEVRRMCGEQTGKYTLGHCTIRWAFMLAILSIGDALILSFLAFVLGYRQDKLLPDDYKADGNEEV
T1 sequence (Q8K467 29-153 partner): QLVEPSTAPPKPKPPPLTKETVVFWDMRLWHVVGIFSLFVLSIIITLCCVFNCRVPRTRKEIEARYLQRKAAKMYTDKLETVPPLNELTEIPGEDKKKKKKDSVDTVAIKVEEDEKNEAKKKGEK
T1 sequence (Q9Z309 whole entry partner): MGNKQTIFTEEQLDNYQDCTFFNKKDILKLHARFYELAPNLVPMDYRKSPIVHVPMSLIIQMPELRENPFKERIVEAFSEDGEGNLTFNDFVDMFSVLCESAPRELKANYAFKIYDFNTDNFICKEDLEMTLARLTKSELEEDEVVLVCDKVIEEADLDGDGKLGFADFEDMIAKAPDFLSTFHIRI

SMILES: C[N+](C)(C)CCSS(C)(=O)=O.[Br-] [MTSET, 2-(trimethylammonium)ethyl methanethiosulfonate, bromide]
- effect on the MET current [1]: reduced the MET current
- effect on the MET current amplitude [2]: did change the MET current amplitude
- amplitude of the background current after MTSET treatment [3]: -25.3123 and -14.3715 and -14.7309 and -35.792
- amplitude of the background current after MTSET treatment [4]: -35.9532 and -37.439 and -48.1972 and -25.6217 and -14.3767 and -67.9843
